Assay [1] addresses RBP4-TTR interaction (Homo sapiens (Human), UniProt P02753). In words: TR-FRET (HTRF) assay for retinol-induced RBP4-TTR interaction. In kind it is biochemical. Particulars: in the presence of 1 μM retinol; read-out: HTRF assay for antagonists of RBP4-TTR interaction: IC50. From the text: TR-FRET assay for retinol-induced RBP4-TTR interaction Binding of a desired RBP4 antagonist displaces retinol and induces hindrance for RBP4-TTR interaction resulting in the decreased FRET signal (FIG. 7). Bacterially expressed MBP-RBP4 and untagged TTR were used in this assay. […] Following cell lysis, recombinant RBP4 was purified from the soluble fraction using the ACTA FPLC system (GE Healthcare) equipped with the 5-ml the MBP Trap HP column. Human untagged TTR was purchased from Calbiochem. Untagged TTR was labeled directly with Eu^3+ Cryptate-NHS using the HTRF Cryptate Labeling kit from CisBio following the manufacturer's recommendations. HTRF assay was performed in white low volume 384 well plates (Greiner-Bio) in a final assay volume of 16 μl per well. The reaction buffer contained 10 mM Tris-HCl pH 7.5, 1 mM DTT, 0.05% NP-40, 0.05% Prionex, 6% glycerol, and 400 mM KF. […] Titration of test compounds in this assay was conducted in the presence of 1 μM retinol. All reactions were assembled in the dark under dim red light and incubated overnight at +4° C. wrapped in aluminum foil. TR-FRET signal was measured in the SpectraMax M5e Multimode Plate Reader (Molecular Device). […] The TR-FRET signal was expressed as the ratio of fluorescence intensity: Flu665/Flu620×10,000.
(In general: In TR-FRET formats the signal depends on donor and acceptor labels being close together.)

Assay [2] addresses RBP4 (Homo sapiens (Human), UniProt P02753). In words: Scintillation proximity (SPA) RBP4 binding assay. Particulars: 10 nM 3H-Retinol, 50 nM biotinylated RBP4. The procedure:
Scintillation Proximity RBP4 Binding Assay
Untagged human RBP4 purified from urine of tubular proteinuria patients was purchased from Fitzgerald Industries International. It was biotinylated using the EZ-Link Sulfo-NHS-LC-Biotinylation kit from Pierce following the manufacturer's recommendations. Binding experiments were performed in 96-well plates (OptiPlate, PerkinElmer) in a final assay volume of 100 μl per well in SPA buffer (IX PBS, pH 7.4, 1 mM EDTA, 0.1% BSA, 0.5% CHAPS). The reaction mix contained 10 nM ^3H-Retinol (48.7 Ci/mmol; PerkinElmer), 0.3 mg/well Streptavidin-PVT beads, 50 nM biotinylated RBP4 and a test compound. Nonspecific binding was determined in the presence of 20 μM of unlabeled retinol. The reaction mix was assembled in the dark under dim red light. The plates were sealed with clear tape (TopSeal-A: 96-well microplate, PerkinElmer), wrapped in the aluminum foil, and allowed to equilibrate 6 hours at room temperature followed by overnight incubation at +4° C. Radiocounts were measured using a TopCount NXT counter (Packard Instrument Company).

23 molecules from patent publication US9434727B2, “Substituted 4-phenylpiperidines, their preparation and use” (THE TRUSTEES OF COLUMBIA UNIVERSITY IN THE CITY OF NEW YORK, priority 2014, dated 2016) can be followed below.

With `O=C(c1n[nH]c2c1CN(CC(F)(F)F)CC2)N1CCC(c2cccc(F)c2C(F)(F)F)CC1` [Compound 71, (4-(3-Fluoro-2-(trifluoromethyl)phenyl)piperidin-1-yl)(5-(2,2,2-trifluoroethyl)-4,5,6,7-tetrahydro-1H-pyrazolo[4,3-c]pyridin-3-yl)methanone], the figures for the IC50 in assay [1] and in assay [2] were 52.6 nM and 17.1 nM, respectively.
In the case of `COC(=O)N1CCc2c(C(=O)N3CCC(c4cc(F)cc(F)c4C(F)(F)F)CC3)n[nH]c2C1` [Compound 130, Methyl 3-(4-(3,5-difluoro-2-(trifluoromethyl)phenyl)piperidine-1-carbonyl)-1,4,5,7-tetrahydro-6H-pyrazolo[3,4-c]pyridine-6-carboxylate], the IC50 in assay [1] worked out at 14.9 nM; in assay [2], 12.8 nM.
The corresponding values for `O=C(c1n[nH]c2c1CN(CCC(F)(F)F)CC2)N1CCC(c2cccc(F)c2Cl)CC1` [Compound 167, (4-(2-Chloro-3-fluorophenyl)piperidin-1-yl)(5-(3,3,3-trifluoropropyl)-4,5,6,7-tetrahydro-1H-pyrazolo[4,3-c]pyridin-3-yl)methanone] are 48.8 nM and 11.7 nM.
Taken in the same sequence, the figures for `CC(C)(C)CN1CCc2c(C(=O)N3CCC(c4ccc(F)c(F)c4C(F)(F)F)CC3)n[nH]c2C1` [Compound 126, (4-(3,4-Difluoro-2(trifluoromethyl)phenyl)piperidin-1-yl)(6-neopentyl-4,5,6,7-tetrahydro-1H-pyrazolo[3,4-c]pyridin-3-yl)methanone] were 170 nM and 17 nM.
Regarding `CC(=O)N1CCc2c(C(=O)N3CCC(c4cccc(F)c4Cl)CC3)n[nH]c2C1` [Compound 150, 1-(3-(4-(2-chloro-3-fluorophenyl)piperidine-1-carbonyl)-4,5-dihydro-1H-pyrazolo[3,4-c]pyridin-6(7H)-yl)ethanone], the IC50 was 23.7 nM in assay [1] and 4.84 nM in assay [2].
Taken in the same sequence, the figures for `O=C(c1ccccc1)N1Cc2[nH]nc(C(=O)N3CCC(c4ccc(F)c(F)c4C(F)(F)F)CC3)c2C1` [Compound 102, (5-benzoyl-1,4,5,6-tetrahydropyrrolo[3,4-c]pyrazol-3-yl)(4-(3,4-difluoro-2-(trifluoromethyl)phenyl)piperidin-1-yl)methanone] were 27.6 nM and 21.7 nM.
The corresponding values for `O=C(c1n[nH]c2c1CN(CC(F)(F)F)C2)N1CCC(c2ccc(F)c(F)c2C(F)(F)F)CC1` [Compound 107] are 77 nM and 23.4 nM.
As to `CS(=O)(=O)N1CCc2[nH]nc(C(=O)N3CCC(c4cc(F)ccc4Cl)CC3)c2C1` [Compound 144, (4-(2-chloro-5-fluorophenyl)piperidin-1-yl)(5-(methylsulfonyl)-4,5,6,7-tetrahydro-1H-pyrazolo[4,3-c]pyridin-3-yl)methanone], the IC50 in assay [1] is 70.3 nM; in assay [2], 6.17 nM.
In the case of `N#CN1CCc2[nH]nc(C(=O)N3CCC(c4ccc(F)c(F)c4C(F)(F)F)CC3)c2C1` [Compound 95, 3-(4-(3,4-difluoro-2-(trifluoromethyl)phenyl)piperidine-1-carbonyl)-6,7-dihydro-1H-pyrazolo[4,3-c]pyridine-5(4H)-carbonitrile], the IC50 in assay [1] came out at 27.8 nM; in assay [2], 7.78 nM.
For `O=C(c1n[nH]c2c1CN(CCC(F)(F)F)CC2)N1CCC(c2cc(F)cc(F)c2C(F)(F)F)CC1` [Compound 129, (4-(3,5-Difluoro-2-(trifluoromethyl)phenyl)piperidin-1-yl)(5-(3,3,3-trifluoropropyl)-4,5,6,7-tetrahydro-1H-pyrazolo[4,3-c]pyridin-3-yl)methanone], the IC50 in assay [1] came to 19.5 nM; in assay [2], 13.8 nM.
In the case of `N#Cc1ccc2nnc(C(=O)N3CCC(c4cccc(F)c4Cl)CC3)n2c1` [Compound 152, 3-(4-(2-chloro-3-fluorophenyl)piperidine-1-carbonyl)-[1,2,4]triazolo[4,3-a]pyridine-6-carbonitrile], the IC50 in assay [1] came to 27.8 nM; in assay [2] it was 3.1 nM.
Taken in the same sequence, the figures for `CCC(=O)N1CCc2c(C(=O)N3CCC(c4ccc(F)c(F)c4C(F)(F)F)CC3)n[nH]c2C1` [Compound 122, 1-(3-(4-(3,4-Difluoro-2-(trifluoromethyl)phenyl)piperidine-1-carbonyl)-1,4,5,7-tetrahydro-6H-pyrazolo[3,4-c]pyridin-6-yl)propan-1-one] were 27.7 nM and 17 nM.
On to `CC(=O)N1CCc2c(C(=O)N3CCC(c4c(F)cccc4C(F)(F)F)CC3)n[nH]c2C1` [Compound 156, 1-(3-(4-(2-fluoro-6-(trifluoromethyl)phenyl)piperidine-1-carbonyl)-4,5-dihydro-1H-pyrazolo[3,4-c]pyridin-6 (7H)-yl) ethanone], for which the figures for the IC50 in assay [1] and in assay [2] were 248 nM and 19.4 nM, respectively.
Taken in the same sequence, the figures for `COC(=O)N1CCc2[nH]nc(C(=O)N3CCC(c4ccc(F)c(F)c4C(F)(F)F)CC3)c2C1` [Compound 91, methyl 3-(4-(3,4-difluoro-2-(trifluoromethyl)phenyl)piperidine-1-carbonyl)-6,7-dihydro-1H-pyrazolo[4,3-c]pyridine-5(4H)-carboxylate] were 57.7 nM and 7.06 nM.
On to `CCN1CCc2c(C(=O)N3CCC(c4ccc(F)c(F)c4C(F)(F)F)CC3)n[nH]c2C1` [Compound 111, (4-(3,4-Difluoro-2-(trifluoromethyl)phenyl)piperidin-1-yl)(6-ethyl-4,5,6,7-tetrahydro-1H-pyrazolo[3,4-c]pyridin-3-yl)methanone], for which the IC50 stood at 22.1 nM in assay [1] and 6.89 nM in assay [2].
On to `O=C(c1n[nH]c2c1CCN(CC1CC1)C2)N1CCC(c2cccc(F)c2Cl)CC1` [Compound 146, (4-(2-chloro-3-(fluorophenyl)piperidin-1-yl)(6-cyclopropylmethyl)-4,5,6,7-tetrahydro-1H-pyrazolo[3,4-c]pyridine-3-yl)methanone], for which the IC50 in assay [1] turned out to be 36.5 nM; in assay [2], 15.9 nM.
As for `O=C(O)CN1CCc2c(C(=O)N3CCC(c4ccc(F)c(F)c4C(F)(F)F)CC3)n[nH]c2C1` [Compound 115, 2-(3-(4-(3,4-Difluoro-2-(trifluoromethyl)phenyl)piperidine-1-carbonyl)-1,4,5,7-tetrahydro-6H-pyrazolo[3,4-c]pyridin-6-yl)acetic acid], the concentration for half-maximal inhibition (IC50) in assay [1] was 109 nM; in assay [2], 18.9 nM.
As to `COC(=O)N1Cc2[nH]nc(C(=O)N3CCC(c4ccc(F)c(F)c4C(F)(F)F)CC3)c2C1` [Compound 101, methyl 3-(4-(3,4-difluoro-2-(trifluoromethyl)phenyl)piperidine-1-carbonyl)-4,6-dihydropyrrolo[3,4-c]pyrazole-5(1H)-carboxylate], the IC50 in assay [1] turned out to be 14.1 nM; in assay [2] it was 7.44 nM.
`O=C(c1n[nH]c2c1CN(CC1CC1)CC2)N1CCC(c2cccc(F)c2Cl)CC1` [Compound 164, (4-(2-Chloro-3-fluorophenyl)piperidin-1-yl)(5-(cyclopropylmethyl)-4,5,6,7-tetrahydro-1H-pyrazolo[4,3-c]pyridin-3-yl)methanone]: the IC50 in assay [1] was 75 nM; in assay [2], 13.6 nM.
Regarding `N#CN1CCc2c(C(=O)N3CCC(c4ccc(F)c(F)c4C(F)(F)F)CC3)n[nH]c2C1` [Compound 120, 3-(4-(3,4-Difluoro-2-(trifluoromethyl)phenyl)piperidine-1-carbonyl)-1,4,5,7-tetrahydro-6H-pyrazolo[3,4-c]pyridine-6-carbonitrile], the IC50 in assay [2] was determined as 3.45 nM.
In the case of `N#CN1CCc2[nH]nc(C(=O)N3CCC(c4cccc(F)c4C(F)(F)F)CC3)c2C1` [Compound 70, 3-(4-(3-Fluoro-2-(trifluoromethyl)phenyl)piperidine-1-carbonyl)-6,7-dihydro-1H-pyrazolo[4,3-c]pyridine-5(4H)-carbonitrile], in assay [1], the IC50 is 37.5 nM.
Take `O=C(c1n[nH]c2c1CN(C(=O)N1CCCCC1)C2)N1CCC(c2ccc(F)c(F)c2C(F)(F)F)CC1` [Compound 128, (4-(3,4-Difluoro-2-(trifluoromethyl)phenyl)piperidin-1-yl)(5-(piperidine-1-carbonyl)-1,4,5,6 tetrahydropyrrolo[3,4-c]pyrazol-3-yl)methanone]: the IC50 in assay [1] amounted to 32.4 nM.
In assay [2], `N#CN1CCc2c(C(=O)N3CCC(c4cccc(F)c4C(F)(F)F)CC3)n[nH]c2C1` [Compound 78, 3-(4-(3-Fluoro-2-(trifluoromethyl)phenyl)piperidine-1-carbonyl)-4,5-dihydro-1H-pyrazolo[3,4-c]pyridine-6(7H)-carbonitrile] came in with an IC50 of 9.5 nM.

As a reminder, the IC50 is the midpoint of a concentration-inhibition curve.
